Where a name gives a salt, the structure may show the parent alone. Read-outs that look alike come from different tables or passages of the source.
Assays:
[1] = target: T1, human dopamine D2L receptors (long isoform) (Homo sapiens, UniProt P14416); test: Dopamine D2L receptor binding, [125I] iodospiperone displacement
T1 construct: expressed in transfected cells; host or cells: HEK-293
Experimental: (§1) The substance to be tested was either dissolved in methanol/Chremophor® (BASF-AG) or in dimethyl sulfoxide and then diluted with water to the desired concentration.
(§2) Each assay mixture was run in triplicate.
The incubation buffer contained 50 mM tris, 120 mM NaCl, 5 mM KCl, 2 mM CaCl2, 2 mM MgCl2 and 0.1% bovine serum albumin. The buffer was adjusted to pH 7.4 with HCl.
(§3) After having been incubated at 25° C. for 60 minutes, the assay mixtures were filtered through a Whatman GF/B glass fiber filter under vacuum using a cell collecting device. The filters were transferred to scintillation viols using a filter transfer system. After 4 ml of Ultima Gold® (Packard) have been added, the samples were shaken for one hour and the radioactivity was then counted in a Beta-Counter (Packard, Tricarb 2000 or 2200CA). The cpm values were converted into dpm using a standard quench series and the program belonging to the instrument.
(§4) The inhibition curves were analyzed by means of iterative nonlinear regression analysis using the Statistical Analysis System (SAS) which is similar to the “LIGAND” program described by Munson and Rodbard.

[2] = target: T2, human dopamine D3 receptors (Homo sapiens, UniProt P35462); test: Dopamine D3 receptor binding, [125I]-iodosulpride displacement; details: for Ki: membranes of HEK-293 cells, 0.1 nM [125I]-iodosulpride, 25° C., 60 minutes; for Ki(D2)/Ki(D3): selectivity ratio of receptor binding constants
T2 construct: expressed in transfected cells; host or cells: HEK-293
T2 sequence (P35462 whole entry): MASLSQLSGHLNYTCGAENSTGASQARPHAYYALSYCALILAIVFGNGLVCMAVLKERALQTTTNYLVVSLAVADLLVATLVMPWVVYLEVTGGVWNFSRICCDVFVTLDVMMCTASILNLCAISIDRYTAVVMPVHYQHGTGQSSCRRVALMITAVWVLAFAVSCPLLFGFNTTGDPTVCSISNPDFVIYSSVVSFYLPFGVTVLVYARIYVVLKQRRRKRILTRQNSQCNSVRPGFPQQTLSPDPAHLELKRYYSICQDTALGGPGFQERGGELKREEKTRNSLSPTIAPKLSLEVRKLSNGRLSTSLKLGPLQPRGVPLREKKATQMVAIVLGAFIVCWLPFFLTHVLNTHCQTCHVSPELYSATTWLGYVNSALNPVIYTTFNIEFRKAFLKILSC
Experimental: as §1, §2
The incubation buffer contained 50 mM tris, 120 mM NaCl, 5 mM KCl, 2 mM CaCl2, 2 mM MgCl2 and 0.1% bovine serum albumin, 10 μM quinolone and 0.1% ascorbic acid (prepared fresh daily). The buffer was adjusted to pH 7.4 with HCl.
as §3, §4

[3] = membranes of HEK-293 cells, 0.01 nM [125I] iodospiperone, 25° C., 60 minutes, read-out: Ki(D2)

T1 sequence (P14416 whole entry, canonical isoform): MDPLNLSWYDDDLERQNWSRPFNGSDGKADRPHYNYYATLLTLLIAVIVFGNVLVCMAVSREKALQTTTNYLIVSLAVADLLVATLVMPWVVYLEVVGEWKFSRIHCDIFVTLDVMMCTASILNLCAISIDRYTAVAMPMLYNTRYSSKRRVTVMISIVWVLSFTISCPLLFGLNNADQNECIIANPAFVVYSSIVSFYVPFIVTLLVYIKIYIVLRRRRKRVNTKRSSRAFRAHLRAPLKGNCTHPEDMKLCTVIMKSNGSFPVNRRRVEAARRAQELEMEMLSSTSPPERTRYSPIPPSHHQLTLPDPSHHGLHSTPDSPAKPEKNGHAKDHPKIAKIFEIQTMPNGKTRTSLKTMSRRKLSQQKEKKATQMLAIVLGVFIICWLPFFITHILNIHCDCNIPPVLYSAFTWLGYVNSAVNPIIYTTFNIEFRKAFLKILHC

Row | Compound | Ki [1, 3] | Ki [2] | Ki(D2)/Ki(D3) [2] | Ki [1]
1 | 2-tert-Butyl-4-cyclobutyl-6-{4-[3-(1-methyl-1H-tetrazol-5-ylsulfanyl)-propyl]-piperazin-1-yl}-pyrimidine [Example 9] | 432 nM | 4.1 nM | 106 | –
2 | CC(C)(C)c1nc(C2CCC2)cc(N2CCN(CCCSc3nncs3)CC2)n1 [Example 1, 2-tert-Butyl-4-cyclobutyl-6-{4-[3-([1,3,4]thiadiazol-2-ylsulfanyl)-pronyl]-piperazin-1-yl}-pyrimidine] | – | 0.9 nM | 54 | 49 nM
3 | Cc1nnc(SCCCN2CCN(c3cc(C4CCC4)nc(C(C)(C)C)n3)CC2)s1.Cl [Example 2, 2-tert-Butyl-4-cyclobutyl-6-{4-[3-(5-methyl-[1,3,4]thiadiazol-2-ylsulfanyl)-propyl]-piperazin-1-yl}-pyrimidine hydrochloride] | 135 nM | 1.4 nM | 96 | –
4 | CC(C)(C)c1nc(C2CCC2)cc(N2CCN(CCCSc3ncccn3)CC2)n1.Cl [Example 4, 2-tert-Butyl-4-cyclobutyl-6-{4-[3-(pyrimidin-2-ylsulfanyl)-propyl]-piperazin-1-yl}-pyrimidine hydrochloride] | 113 nM | 0.9 nM | 127 | –
5 | CC(C)(C)c1nc(C2CCC2)cc(N2CCN(CCCCNC(=O)c3ccc(F)cc3)CC2)n1.Cl [Example 10, N-{4-[4-(2-tert-Butyl-6-cyclobutyl-pyrimidin-4-yl)-piperazin-1-yl]-butyl}-4-fluoro-benzamide hydrochloride] | 87 nM | 0.5 nM | 163 | –
6 | CC(C)(C)c1nc(C2CCC2)cc(N2CCN(CCCCNC(=O)c3ccncc3)CC2)n1.Cl [Example 11, N-{4-[4-(2-tert-Butyl-6-cyclobutyl-pyrimidin-4-yl)-piperazin-1-yl]-butyl}-isonicotinamide hydrochloride] | 137 nM | 0.9 nM | 150 | –
7 | CC(C)(C)c1nc(C2CCC2)cc(N2CCN(CCCCNC(=O)c3cccnc3)CC2)n1 [Example 12, N-{4-[4-(2-tert-Butyl-6-cyclobutyl-pyrimidin-4-yl)-piperazin-1-yl]-butyl}-nicotinamide] | 115 nM | 1 nM | 121 | –
8 | CC(C)(C)c1nc(C2CCC2)cc(N2CCN(CCCOc3ccnc(O)n3)CC2)n1 [Example 24, 4-{3-[4-(2-tert-Butyl-6-cyclobutyl-pyrimidin-4-yl)-piperazin-1-yl]-propoxy}-pyrimidin-2-ol] | 112 nM | 1.2 nM | 93 | –
9 | CC(C)(C)c1nc(C2CCC2)cc(N2CCN(CCCOc3nccc(O)n3)CC2)n1 [Example 26, 2-{3-[4-(2-tert-Butyl-6-cyclobutyl-pyrimidin-4-yl)-piperazin-1-yl]-propoxy}-pyrimidin-4-ol] | 337 nM | 4.8 nM | 70 | –
10 | CC(C)(C)c1nc(C2CCC2)cc(N2CCN(CCCOc3ncccn3)CC2)n1.Cl [Example 27, 2-tert-Butyl-4-cyclobutyl-6-{4-[3-(pyrimidin-2-yloxy)-propyl]-piperazin-1-yl}-pyrimidine hydrochloride] | 222 nM | 2.1 nM | 107 | –
11 | C[C@@H](COc1ncccn1)CN1CCN(c2cc(C3CCC3)nc(C(C)(C)C)n2)CC1.Cl [Example 28, (R)-2-tert-Butyl-4-cyclobutyl-6-{4-[2-methyl-3-(pyrimidin-2-yloxy)-propyl]-piperazin-1-yl}-pyrimidine hydrochloride] | 296 nM | 3.8 nM | 78 | –
12 | C[C@@H](COc1ccnc(O)n1)CN1CCN(c2cc(C3CCC3)nc(C(C)(C)C)n2)CC1 [Example 31, (R)-4-{3-[4-(2-tert-Butyl-6-cyclobutyl-pyrimidin-4-yl)-piperazin-1-yl]-2-methyl-propoxy}-pyrimidin-2-ol] | 143 nM | 2 nM | 72 | –
13 | CC(C)(C)c1nc(C2CCC2)cc(N2CCN(CCCCc3nccc(O)n3)CC2)n1 [Example 34, 2-{4-[4-(2-tert-Butyl-6-cyclobutyl-pyrimidin-4-yl)-piperazin-1-yl]-butyl}-pyrimidin-4-ol] | 77 nM | 1.1 nM | 71 | –
14 | Cl.Cn1nnnc1SCCCN1CCN(c2cc(C3CC3)nc(C(C)(C)C)n2)CC1 [Example 35, 2-tert-Butyl-4-cyclopropyl-6-{4-[3-(1-methyl-1H-tetrazol-5-ylsulfanyl)-propyl]-piperazin-1-yl}-pyrimidine hydrochloride] | 587 nM | 3.8 nM | 154 | –
15 | CC(C)(C)c1nc(C2CC2)cc(N2CCN(CCCOc3nccc(O)n3)CC2)n1 [Example 37, 2-{3-[4-(2-tert-Butyl-6-cyclopropyl-pyrimidin-4-yl)-piperazin-1-yl]-propoxy}-pyrimidin-4-ol] | 359 nM | 7.1 nM | 51 | –
16 | Cn1cnnc1SCCCN1CCN(c2cc(C3CCC3)nc(C(C)(C)C)n2)CC1 [Example 41, 2-tert-Butyl-4-{4-[3-(4-methyl-4H-[1,2,4]triazol-3-ylsulfanyl)-propyl]-piperazin-1-yl}-6-cyclobutylpyrimidine] | 405 nM | 1.3 nM | 314 | –
17 | Cn1c(SCCCN2CCN(c3cc(C4CCC4)nc(C(C)(C)C)n3)CC2)nnc1C(F)(F)F [Example 42, 2-tert-Butyl-4-{4-[3-(4-methyl-5-trifluoromethyl-4H-[1,2,4]triazol-3-ylsulfanyl)-propyl]-piperazin-1-yl}-6-cyclobutyl-pyrimidine] | 405 nM | 2 nM | 203 | –
18 | Cc1nnc(SCCCN2CCN(c3cc(C4CCC4)nc(C(C)(C)C)n3)CC2)n1C.O=C(O)/C=C/C(=O)O [Example 43, 2-tert-Butyl-4-{4-[3-(4-methyl-5-methyl-4H-[1,2,4]triazol-3-ylsulfanyl)-propyl]-piperazin-1-yl}-6-cyclobutyl-pyrimidine fumarate] | 305 nM | 1.5 nM | 210 | –
19 | Cn1c(SCCCN2CCN(c3cc(C4CCC4)nc(C(C)(C)C)n3)CC2)nnc1C1CC1.O=C(O)/C=C/C(=O)O [Example 44, 2-tert-Butyl-4-{4-[3-(4-methyl-5-cyclopropyl-4H-[1,2,4]triazol-3-ylsulfanyl)-propyl]-piperazin-1-yl}-6-cyclobutyl-pyrimidine fumarate] | 142 nM | 0.6 nM | 250 | –
20 | Cc1nnc(SCCCN2CCN(c3cc(C4CC4)nc(C(C)(C)C)n3)CC2)n1C.Cl [Example 45, 2-tert-Butyl-4-{4-[3-(4-methyl-5-methyl-4H-[1,2,4]triazol-3-ylsulfanyl)-propyl]-piperazin-1-yl}-6-cyclopropyl-pyrimidine hydrochloride] | 272 nM | 1.2 nM | 234 | –
21 | Cl.Cn1c(SCCCN2CCN(c3cc(C4CC4)nc(C(C)(C)C)n3)CC2)nnc1C(F)(F)F [Example 47, 2-tert-Butyl-4-{4-[3-(4-methyl-5-trifluoromethyl-4H-[1,2,4]triazol-3-ylsulfanyl)-propyl]-piperazin-1-yl}-6-cyclopropyl-pyrimidine hydrochloride] | 484 nM | 1.9 nM | 253 | –
22 | C[C@@H](COc1nccc(O)n1)CN1CCN(c2cc(C3CCC3)nc(C(C)(C)C)n2)CC1 [Example 52] | 926 nM | 11.2 nM | 82 | –
23 | Cn1cnnc1SCCCN1CCN(c2cc(C3(C)CC3)nc(C(C)(C)C)n2)CC1 [Example 53, 2-tert-butyl-4-{4-[3-(4-methyl-4H-[1,2,4]triazol-3-ylsulfanyl)-propyl]-piperazin-1-yl}-6-(1-methyl)cyclopropyl-pyrimidine] | 58 nM | 1.2 nM | 50 | –
24 | Cc1nnc(SCCCN2CCN(c3cc(C4(C)CC4)nc(C(C)(C)C)n3)CC2)n1C [Example 54, 2-tert-butyl-4-{4-[3-(4-methyl-5-methyl-4H-[1,2,4]triazol-3-ylsulfanyl)-propyl]piperazin-1-yl}-6-(1-methyl)cyclopropyl-pyrimidine] | 80 nM | 0.64 nM | 124 | –
25 | Cn1c(SCCCN2CCN(c3cc(C4CC4)nc(C(C)(C)C)n3)CC2)nnc1-c1cnccn1 [Example 56, 2-tert-butyl-4-{4-[3-(5-pyrazin-4-methyl-4H-[1,2,4]triazol-3-ylsulfanyl)-propyl]-piperazin-1-yl}6-cyclopropyl-pyrimidine hydrochloride] | 51.2 nM | 0.47 nM | 109 | –
26 | Cn1c(SCCCN2CCN(c3cc(C(C)(C)C)nc(C4CC4)n3)CC2)nnc1-c1cnccn1 [Example 57, 2-cyclopropyl-4-{4-[3-(5-pyrazin-4-methyl-4H-[1,2,4]triazol-3-ylsulfanyl)-propyl]-piperazin-1-yl}6-tert-butyl-pyrimidine hydrochloride] | 1610 nM | 5.47 nM | 296 | –
